Paper PMC9820430, “New Affordable Methods for Large-Scale Isolation of Major Olive Secoiridoids and Systematic Comparative Study of Their Antiproliferative/Cytotoxic Effect on Multiple Cancer Cell Lines of Different Cancer Origins” (International Journal of Molecular Sciences, 2022)
Like-named read-outs stand apart in the source and are kept apart here. Each block holds one compound with its values, some of them ahead of it.

Tests used:
[1] = test system: A2058; experiment: ATP-based luminescence cell viability assay (ViaLight), 72 h; design: species or system human; details: for Selectivity index SI (HaCaT): EC50 HaCaT / EC50 A2058; for Selectivity index SI (NHDF): EC50 NHDF / EC50 A2058; for EC50: A2058, 72 h treatment, read-out: EC50 Values of Olive Oil Polyphenols
Protocol: (§1) The antiproliferative/cytotoxic effects of the selected OOPs on each cell line were assessed by measuring the cellular ATP levels after 72 h treatments using an ATP-based luminescence assay. This assay, initially developed as a tumor chemosensitivity assay, has shown considerable promise as a general in vitro toxicity assay due to its high sensitivity that allows the detection of a small number of cells. Consequently, it can be applied to both cancer cell lines and primary tissue cells. […] The EC50 values were calculated by nonlinear regression (curve fit) using a sigmoidal dose–response equation (Figure 2A and Figure S2).
(§2) The OOPs tested in this study were first dissolved in an appropriate DMSO volume such as to prepare a final stock solution of 50 mM, which was further used to prepare various compound concentrations in DMSO-based solutions. The final DMSO concentration in the cell culture was maintained constant in all treated groups of any given experiment and never exceeded the value of 0.2% (v/v). For the treatment experiments, cells were plated in 96-well culture plates, in 100 μL of complete medium at a seeding density of 5000–10,000 cells/well—depending on cells’ size and doubling time—and were allowed to adhere overnight (~16 h). The next day, 150 μL of complete medium was added to each well and the cells were treated with various concentrations of OOPs. Each concentration was tested in triplicate and was repeated 2–3 times. To prepare the final concentration solutions, 0.5 μL of a 500× stock of each tested compound in DMSO was added directly into each well in a final volume of 250 μL culture medium and was gently mixed by pipetting. Control wells were prepared under the same experimental conditions by adding only DMSO at a final concentration of 0.2% (v/v). Compounds were not renewed during the entire period of cell exposure. All cells were cultured at 37 °C in a 5% (v/v) CO2 for 24, 48 or 72 h.
(§3) Briefly, after the treatment with OOPs, the adapted medium was removed from the dish wells and the cells were washed twice with medium without FBS. Then, the C-lysis (LT27-076) was diluted in PBS (1:2) and a volume of 50 μL was added to each well. Cells were incubated with C-lysis for at least 10 min. Finally, an equal volume of lysed cells from each well and ATP monitoring reagent (AMR; LT27-212) was transferred to the wells of a white-walled illuminometer plate (Greiner bio-one; 655074). Cell viability was quantified by measuring luminescence using a multi-mode microplate reader Safire^2 Tecan (software Magellan V6.00 STD.2PC WIN.20000/XP).

[2] = test system: AGS; experiment: as above; design: species or system human; details: 72 h treatment, read-out: EC50 Values of Olive Oil Polyphenols
Protocol: as §1, §2, §3

[3] = test system: Caco-2; experiment: as above; design: species or system human; details: 72 h treatment, read-out: EC50 Values of Olive Oil Polyphenols
Protocol: as §1, §2, §3

[4] = test system: H1299; experiment: as above; design: species or system human; details: for Selectivity index SI (MRC-5): EC50 MRC-5 / EC50 H1299; for EC50: H1299, 72 h treatment, read-out: EC50 Values of Olive Oil Polyphenols
Protocol: as §1, §2, §3

[5] = test system: H1437; experiment: as above; design: species or system human; details: for Selectivity index SI (MRC-5): EC50 MRC-5 / EC50 H1437; for EC50: H1437, 72 h treatment, read-out: EC50 Values of Olive Oil Polyphenols
Protocol: as §1, §2, §3

[6] = test system: HT-29; experiment: as above; design: species or system human; details: 72 h treatment, read-out: EC50 Values of Olive Oil Polyphenols
Protocol: as §1, §2, §3

[7] = test system: HaCaT; experiment: as above; design: species or system human; details: HaCaT (immortal keratinocytes), 72 h treatment, read-out: EC50 Values of Olive Oil Polyphenols
Protocol: as §1, §2, §3

[8] = test system: Hela; experiment: as above; design: species or system human; details: 72 h treatment, read-out: EC50 Values of Olive Oil Polyphenols
Protocol: as §1, §2, §3

[9] = test system: HepG-2; experiment: as above; design: species or system human; details: 72 h treatment, read-out: EC50 Values of Olive Oil Polyphenols
Protocol: as §1, §2, §3

[10] = test system: Huh-7; experiment: as above; design: species or system human; details: 72 h treatment, read-out: EC50 Values of Olive Oil Polyphenols
Protocol: as §1, §2, §3

[11] = test system: MCF 10A; experiment: as above; design: species or system human; details: MCF 10A (non-tumorigenic epithelial), 72 h treatment, read-out: EC50 Values of Olive Oil Polyphenols
Protocol: as §1, §2, §3

[12] = test system: MCF-7; experiment: as above; design: species or system human; details: 72 h treatment, read-out: EC50 Values of Olive Oil Polyphenols
Protocol: as §1, §2, §3

[13] = test system: MDA-MB 231; experiment: as above; design: species or system human; details: for Selectivity index SI (MCF 10A): EC50 MCF 10A / EC50 MDA-MB 231; for EC50: MDA-MB 231, 72 h treatment, read-out: EC50 Values of Olive Oil Polyphenols
Protocol: as §1, §2, §3

[14] = test system: ME-180; experiment: as above; design: species or system human; details: 72 h treatment, read-out: EC50 Values of Olive Oil Polyphenols
Protocol: as §1, §2, §3

[15] = test system: MKN-45; experiment: as above; design: species or system human; details: 72 h treatment, read-out: EC50 Values of Olive Oil Polyphenols
Protocol: as §1, §2, §3

[16] = test system: MRC-5; experiment: as above; design: species or system human; details: MRC-5 (non cancer, lung), 72 h treatment, read-out: EC50 Values of Olive Oil Polyphenols
Protocol: as §1, §2, §3

[17] = test system: PANC-1; experiment: as above; design: species or system human; details: 72 h treatment, read-out: EC50 Values of Olive Oil Polyphenols
Protocol: as §1, §2, §3

[18] = test system: SK-BR-3; experiment: as above; design: species or system human; details: for Selectivity index SI (MCF 10A): EC50 MCF 10A / EC50 SK-BR-3; for EC50: SK-BR-3, 72 h treatment, read-out: EC50 Values of Olive Oil Polyphenols
Protocol: as §1, §2, §3

[19] = test system: SK-MEL-28; experiment: as above; design: species or system human; details: for Selectivity index SI (HaCaT): EC50 HaCaT / EC50 SK-MEL-28; for Selectivity index SI (NHDF): EC50 NHDF / EC50 SK-MEL-28; for EC50: SK-MEL-28, 72 h treatment, read-out: EC50 Values of Olive Oil Polyphenols
Protocol: as §1, §2, §3

[20] = test system: SK-BR-3; details: 5 day treatment, read-out: EC50; cited from earlier work

EC50 ([2]; Homo sapiens, 72 h): 46.2 ± 2.3 µM | EC50 ([3]; Homo sapiens, Caco-2, 72 h): > 100 µM | EC50 ([4]; Homo sapiens, NCI-H1299): 61.7 ± 1.3 µM | EC50 ([5]; Homo sapiens, NCI-H1437, 72 h): 74.6 ± 2.1 µM | EC50 ([6]; Homo sapiens, HT-29, 72 h): > 100 µM | EC50 ([8]; Homo sapiens, HeLa, 72 h): 46.3 ± 4.9 µM | EC50 ([10]; Homo sapiens, Huh-7, 72 h): 49.6 ± 0.5 µM | EC50 ([12]; Homo sapiens, MCF7, 72 h): > 100 µM | EC50 ([13]; Homo sapiens, MDA-MB-231, 72 h): 37.7 ± 2.2 µM | EC50 ([15]; Homo sapiens, MKN-45, 72 h): 25 ± 2.1 µM | EC50 ([17]; Homo sapiens, PANC-1, 72 h): 30.9 ± 0.2 µM | EC50 ([18]; Homo sapiens, SK-BR-3, 72 h): 45.6 ± 2.2 µM | EC50 ([19]; Homo sapiens, SK-MEL-28, 72 h): 33.4 ± 2.4 µM
Compound: C/C=C(/C=O)[C@@H](CC=O)CC(=O)OCCc1ccc(O)c(O)c1 [compound 2, oleacein]
Selectivity index SI (HaCaT) [1]: 0.9 | Selectivity index SI (NHDF) [1]: 0.9 | EC50 ([1]; Homo sapiens, A2058, 72 h): 55.7 ± 3.4 µM | Selectivity index SI (MRC-5) [4]: 0.1 | Selectivity index SI (MRC-5) [5]: 0.1 | EC50 [7]: 51.8 ± 4.2 µM | EC50 ([7]; Homo sapiens, HaCaT, 72 h): > 50 µM | EC50 ([9]; Homo sapiens, HepG2, 72 h): 82.8 ± 0.7 µM | EC50 ([11]; Homo sapiens): 24.7 ± 2.7 µM | Selectivity index SI (MCF 10A) [13]: 0.7 | EC50 ([14]; Homo sapiens, ME-180, 72 h): 25.2 ± 0.2 µM | EC50 ([16]; Homo sapiens, MRC5): 7 ± 0.9 µM | Selectivity index SI (MCF 10A) [18]: 0.5 | Selectivity index SI (HaCaT) [19]: 1.6 | Selectivity index SI (NHDF) [19]: 1.5

EC50 [2]: 48.5 ± 2.5 µM | EC50 [3]: 24.4 ± 1.6 µM | EC50 [4]: 83.3 ± 1.9 µM | EC50 [5]: 11.6 ± 1.1 µM | EC50 [6]: 98.2 ± 8.4 µM | EC50 [8]: 47.6 ± 1.8 µM | EC50 [10]: 36 ± 0.9 µM | EC50 [12]: 61.8 ± 1.2 µM | EC50 [13]: 31.6 ± 2.7 µM | EC50 [15]: 24 ± 1.2 µM | EC50 [17]: 45.7 ± 1.4 µM | EC50 [18]: 21.5 ± 2.5 µM | EC50 [19]: 22.2 ± 1.2 µM
Compound: ligstroside aglycone [4a,b]
EC50 [1]: 63.6 ± 1.6 µM | Selectivity index SI (HaCaT) [1]: 0.9 | Selectivity index SI (NHDF) [1]: 0.7 | Selectivity index SI (MRC-5) [4]: 0.2 | Selectivity index SI (MRC-5) [5]: 1.1 | EC50 [7]: 55.6 ± 1 µM | EC50 [9]: 45.8 ± 3.4 µM | EC50 [11]: 55.8 ± 2.7 µM | Selectivity index SI (MCF 10A) [13]: 1.9 | EC50 [14]: 51.1 ± 2.2 µM | EC50 [16]: 13.2 ± 0.9 µM | Selectivity index SI (MCF 10A) [18]: 2.6 | Selectivity index SI (HaCaT) [19]: 2.5 | Selectivity index SI (NHDF) [19]: 2.1 | EC50 [20]: 26 ± 6 µM
